Measurements as given in the NIST ThermoML archive (doi:10.1021/acs.jced.8b00387).
“And” between values parts separate entries of the source, which are not always exact repeats. Identical values can stand only once. ± gives the expanded uncertainty stated by the source.

Settings: for viscosity / mass density / speed of sound: 102 kPa, Liquid; for viscosity: Concentric cylinders viscometry; for mass density: Vibrating tube method; for speed of sound: Frequency=3 MHz, Single path-length method; for surface tension liquid-gas: Pendant drop shape

CC(CC(C)(C)C)CC(C)(C)CC(C)(C)C (stereo not given) [2,2,4,4,6,8,8-heptamethylnonane]
Settings | mass density [kg/m3] | speed of sound [m/s] | surface tension liquid-gas [mN/m] | viscosity [mPa·s]
253.15 K | 811.4 ± 2 | – | – | 14.09 ± 0.19
288.15 K | 787.76 ± 0.71 | 1305.1 ± 1.2 | – | –
293.15 K | 784.41 ± 0.71 | 1285.9 ± 1.2 | – | 3.75 ± 0.03
294.7 K | – | – | 24.2 ± 0.3 | –
303.15 K | 777.73 ± 0.72 | 1248.3 ± 1.2 | – | 2.97 ± 0.03
313.15 K | 770.99 ± 0.72 | 1211.7 ± 1.2 | – | 2.4 ± 0.02
323.15 K | 764.27 ± 0.72 | 1175.9 ± 1.2 | – | 1.97 ± 0.02
333.15 K | 757.53 ± 0.72 | 1141.3 ± 1.2 | – | 1.65 ± 0.02

CC(CC(C)(C)C)CC(C)(C)C [2,2,4,6,6-pentamethylheptane]
Settings | mass density [kg/m3] | speed of sound [m/s] | surface tension liquid-gas [mN/m] | viscosity [mPa·s]
253.15 K | 775.8 ± 2 | – | – | 3.08 ± 0.06
288.15 K | 748.8 ± 0.7 | 1223.7 ± 1.3 | – | –
293.15 K | 745.2 ± 0.7 | 1203.8 ± 1.3 | – | 1.31 ± 0.02
294 K | – | – | 22.1 ± 0.4 | –
303.15 K | 737.9 ± 0.7 | 1164.7 ± 1.3 | – | 1.13 ± 0.02
313.15 K | 730.6 ± 0.7 | 1126.5 ± 1.3 | – | 0.955 ± 0.021
323.15 K | 723.2 ± 0.7 | 1089.1 ± 1.3 | – | 0.849 ± 0.021
333.15 K | 715.8 ± 0.7 | 1052.7 ± 1.3 | – | 0.744 ± 0.021

CCCCc1ccccc1 [butylbenzene]
Settings | mass density [kg/m3] | speed of sound [m/s] | surface tension liquid-gas [mN/m] | viscosity [mPa·s]
253.15 K | 892.6 ± 2 | – | – | 2.21 ± 0.06
288.15 K | 864.47 ± 0.71 | 1373.7 ± 1.1 | – | –
293.15 K | 860.17 ± 0.71 | 1353.2 ± 1.1 | – | 1 ± 0.02
295 K | – | – | 29 ± 0.3 | –
303.15 K | 852.13 ± 0.71 | 1314.3 ± 1.1 | – | 0.88 ± 0.021
313.15 K | 844.07 ± 0.71 | 1276.1 ± 1.1 | – | 0.775 ± 0.021
323.15 K | 835.98 ± 0.71 | 1238.4 ± 1.1 | – | 0.687 ± 0.021
333.15 K | 827.86 ± 0.71 | 1201.5 ± 1.1 | – | 0.615 ± 0.021

CCCCCCc1ccccc1 [hexylbenzene]
Settings | mass density | speed of sound | surface tension liquid-gas [mN/m] | viscosity
253.15 K | 888.9 ± 0.4 kg/m3 and 889.1 ± 2 kg/m3 | – | – | 4.56 ± 0.07 mPa·s and 4.63 ± 0.04 mPa·s
288.15 K | 862.3 ± 0.4 kg/m3 and 862.4 ± 0.8 kg/m3 | 1395.8 ± 1.6 m/s and 1395.6 ± 1.6 m/s | – | –
293.15 K | 858.5 ± 0.4 kg/m3 and 858.6 ± 0.8 kg/m3 | 1376 ± 1.6 m/s and 1376.5 ± 1.6 m/s | – | 1.64 ± 0.02 mPa·s and 1.66 ± 0.02 mPa·s
295 K | – | – | 29.3 ± 0.4 | –
303.15 K | 850.9 ± 0.4 kg/m3 and 851 ± 0.8 kg/m3 | 1338.1 ± 1.6 m/s and 1338.7 ± 1.6 m/s | – | 1.39 ± 0.02 mPa·s and 1.41 ± 0.01 mPa·s
313.15 K | 843.3 ± 0.4 kg/m3 and 843.4 ± 0.8 kg/m3 | 1301.1 ± 1.6 m/s and 1301.6 ± 1.6 m/s | – | 1.17 ± 0.02 mPa·s and 1.19 ± 0.01 mPa·s
323.15 K | 845.7 ± 0.4 kg/m3 and 835.8 ± 0.8 kg/m3 | 1264.7 ± 1.6 m/s and 1265.3 ± 1.6 m/s | – | 1.03 ± 0.02 mPa·s and 1.04 ± 0.01 mPa·s
333.15 K | 828.1 ± 0.4 kg/m3 and 828.2 ± 0.8 kg/m3 | 1229.4 ± 1.6 m/s and 1229.8 ± 1.6 m/s | – | 0.9 ± 0.02 mPa·s
